# Experimental data from patent publication US20080113073A1, “Hydroxydeoxybenzoins And The Use Thereof to Mask A Bitter Taste” (SYMRISE GMBH & CO. KG, priority 2005, published 2008).
# Key:
# taste = conditions: studied within the context of various sweeteners; cited from earlier work
# [1] = test system: bitter impression of a caffeine solution; test: Bitter reduction of a caffeine solution, rated by a group of experts (0 not bitter to 10 extremely bitter); type: in vivo; conditions: for Bitter impression (1-10) with: 500 ppm caffeine plus 100 ppm substance, 95% confidence intervals given as error; for % reduction in the bitter impression: 500 ppm caffeine, 100 ppm substance, calculated from average ratings without/with substance
# Protocol: In order to quantify the reduction in the bitter impression, the bitterness of a caffeine solution comprising 500 ppm and of a sample comprising 500 ppm of caffeine and a variable amount of the compound of the example was determined by a group of experts (rating 0 [not bitter] to 10 [extremely bitter]). The evaluation was carried out by calculating the reduction (in %) in the bitter impression from the average values of the assessments of the caffeine solution or the solutions containing caffeine and compound of the example. 2,4-Dihydroxybenzoic acid (2,4-DHB) was used as comparison in accordance with U.S. Pat. No. 5,643,941.
# taste of caffeine = conditions: in vivo; cited from earlier work
# [2] = test system: sweet impression of a sucrose solution; test: Enhancement of the sweet impression of a sucrose solution, rated by a group of experts (0 not sweet to 10 extremely sweet); type: in vivo
# Protocol: In order to quantify the enhancement of the sweet impression, the sweetness of a sucrose solution comprising 5% and of a sample comprising 5% sucrose and an amount of compound 2 was determined by a group of experts (rating 0 [not sweet] to 10 [extremely sweet]). The evaluation was carried out by calculating the […] (in %) in the sweet impression from the average values of the assessments of the sucrose solution or of the solution comprising sucrose and compound 2.
# [3] = test system: sweetness impression of sugared low-fat yoghurt; test: Sweetness enhancement in low-fat yoghurt with 5% sugar, coded tasting by 16 testers (scale 0 to 10); type: in vivo
# From the text: 5% sugar was stirred into a commercially available natural yoghurt (without additives) having a fat content of 0.1% (sample 1). 200 ppm of compound 2 (Example 2), which had previously been dissolved in a minimal amount of ethanol, were additionally incorporated into a sample 2. Samples 1 and 2 were presented in coded form, in a different but predetermined order, to 16 testers for tasting. The testers had to note the sweetness impression on a scale of from 0 (not present) to 10 (extreme sweetness). In addition, the testers were to note other taste impressions.
smiles,measurement,setting,value
"COc1ccc(CC(=O)c2c(O)cc(O)cc2O)cc1O [2-(3-hydroxy-4-methoxyphenyl)-1-(2,4,6-trihydroxyphenyl)ethanone]",taste of the compound itself,taste,tasteless
"COc1cc(CC(=O)c2c(O)cc(O)cc2O)ccc1O [Compound 1, 2-(4-Hydroxy-3-methoxyphenyl)-1-(2,4,6-trihydroxyphenyl)-ethanone]",Bitter impression (1-10) with,[1],3.8 ± 0.9
same,% reduction in the bitter impression,[1],23%
"O=C([O-])c1ccc(O)cc1O.[K+] [2,4-Dihydroxybenzoic acid potassium salt]",ability to suppress the taste of caffeine,taste of caffeine,not able to suppress the taste of caffeine
"COc1cc(CC(=O)c2ccc(O)cc2O)ccc1O [Compound 2, 1-(2,4-Dihydroxyphenyl)-2-(4-hydroxy-3-methoxyphenyl)-ethanone]",Bitter impression (1-10) with,[1],4.3 ± 0.8
same,% reduction in the bitter impression,[1],10%
same,Sweet impresssion (1-10) with,"[2]; 5% sucrose plus 100 ppm substance, standard deviations given as error",5.9 ± 1.5
same,% enhancement of the sweet impression,"[2]; 5% sucrose, 100 ppm substance, calculated from average ratings",18%
same,number of testers who found the sample with compound sweeter,"[3]; of 16 testers, 4 found sample 1 sweeter, 2 found both equally sweet",10
same,further taste impression noted,[3]; sample 2 (200 ppm compound),sticky
same,preference of testers,[3]; sample 2 (200 ppm compound) versus sample 1,preferred to sample 1 by the majority of testers
same,enhancement of the sweetness impression,[3]; sample 2 (200 ppm compound) versus sample 1 in yoghurt with 5% sugar,18%
same,average sweetness impression rating (0 to 10),"[3]; sample 2: yoghurt 0.1% fat, 5% sugar, 200 ppm compound, sample 1 without compound rated 4.1",4.9
"O=C(O)c1ccc(O)cc1O [2,4-DHB, 2,4-Dihydroxybenzoic acid, reference compound]",Bitter impression (1-10) with,[1],5.0 ± 1.0
same,% reduction in the bitter impression,[1],3%
